Measured values published in paper PMC12066179, “Naphthyl-Substituted Ruthenium(II)–Arene Complexes: Exploring the Impact of Binding Modes on Cytotoxicity in Cancer and Normal Cell Lines” (Bioinorganic Chemistry and Applications, 2025).

How the values were obtained:
[1] = tested on: Caco-2 (colorectal cancer) cell line; test: MTT cell viability assay, Caco-2; type: cell-based
Method: (§1) The MTT assay, which is based on the reduction of 3-(4,5-dimethylthiazol-2-yl)-2,5-diphenyltetrazolium bromide to a purple formazan product, was performed to estimate cell viability and growth. To determine the appropriate dose and time, we performed the MTT assay in HepG2, MCF-7, Caco-2, and Vero cell lines. Cell suspensions of […] cell lines were first prepared at densities of 1 × 10^4/mL cells per well of 96-well culture dishes and plated in triplicate. Cells were then incubated with the complexes (2.5, 5, 10, 25, and 50 μM) for 24 and 48 h. After the treatment using the complexes, a 10 μL MTT (Glentham Life Sciences, GC4568) solution was added to each well, followed by incubation for 4 h at 37°C in 5% CO2. The medium was then discarded, and 50 μL DMSO was added to each well to dissolve the formazan crystals. The absorbance was immediately measured at 540 nm using a UV-visible spectrophotometer multiplate reader.

[2] = tested on: MCF-7 (breast cancer) cell line; test: MTT cell viability assay, MCF-7; type: cell-based
Method: as §1

[3] = tested on: Vero (normal kidney) cell line; test: MTT cell viability assay, Vero; type: cell-based; details: for IC50: MTT
Method: as §1

FS-DNA = FS-DNA binding by UV-Vis titration; details: complex 0–15 μM, 20 mM Tris-HCl/NaCl buffer pH 7.2
Method: To investigate these interactions, UV-Vis analyses were performed on complexes Ru1-3 (0–15 μM) in 20 mM Tris-HCl/NaCl buffer (pH 7.2) containing 0.1 mM FS-DNA. The corresponding absorption spectra are provided in the supporting information. Aromatic naphthyl groups are known for their ability to intercalate between DNA base pairs. […] While Ru1 is a cationic complex with a high capacity for hydrogen bonding, potentially facilitating ionic interactions with DNA, its overall interaction was weaker compared to the other complexes.
UV-visible spectroscopy was employed to investigate the interaction between […] and Ru1-3. Different concentrations of Ru1-3 (0–15 μM) were titrated against a fixed concentration of FS-DNA ([…]) to monitor changes in absorbance at 260 nm. The analysis of these titration data allowed for the determination of the binding constant (Kb) using the following equation:(1) 1/A−A0=1/Amax−A0+1/C×1/KbAmax−A0, where A is the absorbance of FS-DNA at a specific concentration with increasing complex concentration, A0 is the absorbance of FS-DNA without complex, Amax is the absorbance of the FS-DNA complex at the final state, and C is the complex concentration.

[4] = tested on: HepG2 (liver cancer) cell line; test: MTT cell viability assay, HepG2; type: cell-based
Method: as §1

IC50 ([1]; 24 h exposure): 1.39 µM | IC50 ([1]; 48 h exposure): 3.39 µM | IC50 ([2]; 24 h exposure): 2.81 µM | IC50 ([2]; 48 h exposure): 8.75 µM | Binding constant (Kb) with FS-DNA (FS-DNA): 22700 M⁻¹ | IC50 ([4]; 24 h exposure): 4.72 µM | IC50 ([4]; 48 h exposure): 8.8 µM
Compound: Cc1ccc(C(C)C)cc1.Cc1ccc(S(=O)(=O)[N](CCNc2cccc3ccccc23)[Ru][Cl])cc1 [Ru2]
Cytotoxic activity in Vero healthy cell line ([3]; 50–2.5 μM, 24 h and 48 h): did not manifest any cytotoxic activity at concentrations other than 50 μM | IC50 ([3]; 24 h exposure): 7.8 µM | IC50 ([3]; 48 h exposure): 38.3 µM
